Laboratory results as given in US20170029531A1, “INHIBITION OF LACTATE DEHYDROGENASE 5 (LDH-5) BINDING, INCORPORATION, INTERNALIZATION AND/OR ENDOCYTOSIS TO IMMUNE CELLS” (Seattle Children's Hospital (dba Seattle Children's …, priority 2014, published 2017).
Values belong to the compound of their own block, whether it stands above or below them.

Tests used:
U87 = U87 uptake of fluorescently labeled LDH5, flow cytometry; assay type: cell-based
Method: FIG. 26. U87 uptake. […] Fluorescently labeled LDH5 and Transferrin were pre-incubated with anti-LDHa at equilmolar concentrations. The antibody protein combination were then fed to U87 for 30 min. Cells were then trypsinized, acid washed, fixed in 2% PFA. Fluorescence intensity was obtained by flow cytometry. Anti-LDHa blocks uptake by approximately 50%, but has no effect on Transferrin uptake. N=2, p<0.05.
FIG. 27. U87 uptake. […] Fluorescently labeled LDH5 and Transferrin were incubated with U87 in the presence or absence of 20 mM oxamate for 30 min. Cells were then trypsinized, acid washed, fixed in 2% PFA. Fluorescence intensity was obtained by flow cytometry. N=1.
FIG. 28. U87 uptake. […] Fluorescently labeled LDH5 and Transferrin were incubated with U87 in the presence or absence of equimolar MDH for 30 min. Cells were then trypsinized, acid washed, fixed in 2% PFA. Fluorescence intensity was obtained by flow cytometry. N=1.
FIG. 29. U87 uptake. […] Cells were pre-incubated with 30 uM Dyngo 4a or 18 uM Pitstop. Fluorescently labeled LDH5 was then added for 30 min. Cells were then trypsinized, acid washed, fixed in 2% PFA. Fluorescence intensity was obtained by flow cytometry.
Experimental wells were pulsed with 10 ug/mL LDH-A488 for 30 min or 24 hours as indicated (control wells received no LDH) at 37° C. Cells were treated for 2 min with 0.5M acetic acid+150 mM NaCl (pH 2.5), followed by 4 subsequent washes in RPMI+10% FBS. […] (See FIGS. 26-29).

[1] = system: monocytes from healthy donors; assay: NKG2D ligand (MICA, MICB, ULBP-1) mRNA induction in monocytes from healthy donors (MHD), qPCR; assay type: cell-based, human; details: U87 supernatant with sodium oxamate (100 mM in FIG. 2 panel E; 20 mM in the LDH inhibition method); 18 h; qPCR
Source text: FIG. 2. Biochemical purification of tumor-derived Lactate Dehydrogenase, expression in glioma cell lines and verification of LDH-mediated induction of NKG2D ligands on monocytes. (Panel A) Protein purification strategy. […] of U87 glioblastoma cell line supernatant were subjected to ammonium sulfate precipitation. Active fractions were passed over a phenyl Sepharose column and active fractions were then subjected to size exclusion (Superdex 200), followed by ion exchange (MonoS) before Mass Spectroscopy (MS) analysis. (Panel B) Following separation by chromatography, fractions were dialyzed into PBS and cultured with MHD (healthy monocytes) for 18 hours. Whole cell mRNA was reverse transcribed, and induction of MICB and ULBP-1 was analyzed relative to media alone controls. Western blot analysis using a monoclonal antibody to LDH-5 (ab101562) was performed on […] of total protein to confirm the presence of LDH-5 in the active fractions. (Panel C) mRNA isolated from PBMC of healthy donors, 293T cells (as negative controls), and U87, U251, and SF767 glioma cell lines were analyzed for expression of LDHA and LDHB by qPCR. (Panel D) A 1:10 dilution of fresh, unfrozen glioblastoma cell line supernatants was analyzed for total LDH enzymatic activity and expressed as OD 495 nm. (Panel E) Validation of LDH induction of NKG2D ligands in monocytes. Six hundred twenty five U/L of purified, native LDH-5, fresh U87 supernatant, or fresh U87 supernatant in the presence of 100 mM sodium oxamate (NaOx) were cultured with MHD. Eighteen hours later, mRNA was isolated and analyzed for MICA, MICB, and ULBP-1 by qPCR. Values represent induction relative to MHD cultured in media alone. (Panel F) Fresh U87 supernatant, 625 U/L of purified, native LDH-5, LDH-5+0.5 mM Pyruvate (Pyr), or LDH-5+0.5 mM pyruvate and 100 mM NaOx were cultured with MHD. Eighteen hours later, mRNA was isolated and analyzed for MICA, MICB and ULBP-1 by qPCR. Values represent induction relative to MHD cultured in media alone. (Panel G) MHD were cultured with native LDH-5 isolated from liver cells. Eighteen hours later, MICB (black bars) and ULBP-1 (gray bars) were measured by qPCR. (Panel H) Expression of NKG2D and NKp46 on primary human NK cells following a 12 hour incubation with LDH (50 ug/mL) or lactate (20 mM). Cells were surface stained with antibodies directed against CD3, CD56, NKG2D, and NKp46 and analyzed by flow cytometry. The expression level of NKG2D and NKp46 are plotted against CD56. (Panel I) Expression of CD107a on primary human NK cells following IL-2 (1000 U/ml) activation and a 6 hour incubation with LDH (50 ug/mL) or lactate (20 mM). Cells were surface stained with antibodies directed against CD3, CD56, and CD107a and analyzed by flow cytometry. Representative data are shown in the top panels, a summary of percent CD107a+NK cells is shown below. (Panel J) 293T cells were transiently transfected with a pcDNA3.1 (−) vector encoding either LDHA or LDHB, or both constructs. Supernatant was then cultured with CD14-positively selected MHD. Eighteen hours later, MICB and ULBP-1 were measured by qPCR. Values represent induction relative to monocytes cultured in media alone. *P<0.05, **P<0.01.
FIG. 21. Purified native LDH5 or LDH1 was cultured with monocytes from healthy donors. Eighteen hours later, MICB and ULBP-1 were measured by qPCR. Values represent induction relative to monocytes cultured in medium alone. […]

Tumor cells = assay: LDH-5 internalization by tumor cells, flow cytometry (FIGS. 16-19); assay type: cell-based; details: sodium oxamate, FIG. 18
Method: FIG. 17. Tumor cells internalize LDH-5, which can be reduced by antibody blocking. 10 ug/ml of LDH5 specific monoclonal antibody was added to cells 1 hour prior to culture with LDH5 as described above and evaluated for internalization using flow cytometry to evaluate fluorescence.
FIG. 19. LDH-5 internalization is receptor mediated and Clathrin dependent. LDH5 internalization is reduced with receptor mediated endocytosis inhibitors.
LDH5 internalization is reduced with receptor mediated endocytosis inhibitors. This supports that internalization is mediated by a specific receptor, as opposite to bulk phagocytosis.

[2] = system: monocytes, or monocyte derived macrophages; assay: Uptake of fluorescently labeled LDH5 by monocytes / monocyte derived macrophages (CD14+ cells), flow cytometry; assay type: cell-based, human; details: monocyte derived macrophages pre-incubated with 25 uM chlorpromazine for 30 min, labeled LDH5 for a further 30 min; N=2
Method: FIG. 23. […] Fluorescently labeled LDH5 was pre-incubated with anti-LDHa at equilmolar concentrations. The antibody protein combination was then fed to monocytes, or monocyte derived macrophages for 30 min. Cells were then trypsinized, acid washed, fixed in 2% PFA. Fluorescence intensity was obtained by flow cytometry. Anti-LDHa blocks uptake by approximately 50%. Macrophages N=1, Monocytes N=2.
FIG. 24. […] Monocyte derived macrophages were pre-incubated with 25 uM chlorpromazine for 30 min. Fluorescently labeled LDH5 was then added for an additional 30 min. Cells were then trypsinized, acid washed, fixed in 2% PFA. Fluorescence intensity was obtained by flow cytometry. N=2
FIG. 25. […] Fluorescently labeled LDH5 was incubated with U87 in the presence or absence of equimolar MDH for 30 min. Cells were then trypsinized, acid washed, fixed in 2% PFA. Fluorescence intensity was obtained by flow cytometry. N=2.
In an experiment utilizing the antibody with LDH5 in serum, the LDH5 complexed to the antibody was added to macrophages and to a sample of monocytes. […] Monocyte derived macrophages were pre-incubated with 25 uM chlorpromazine for 30 min. […] Fluorescence intensity was obtained by flow cytometry. […] Fluorescence intensity was obtained by flow cytometry. Cells exposed to LDH5-A488 were compared to cells without and amount of fluorescence was determined to represent amount of LDH5 inside of the cell.

primary human NK cells = assay: NKG2D expression and CD107a degranulation of primary human NK cells after incubation with LDH or lactate; assay type: cell-based; details: LDH 50 ug/mL or lactate 20 mM; 12 hour (NKG2D, NKp46) or 6 hour after IL-2 (CD107a)
Source text: FIG. 2. Biochemical purification of tumor-derived Lactate Dehydrogenase, expression in glioma cell lines and verification of LDH-mediated induction of NKG2D ligands on monocytes. (Panel A) Protein purification strategy. […] of U87 glioblastoma cell line supernatant were subjected to ammonium sulfate precipitation. Active fractions were passed over a phenyl Sepharose column and active fractions were then subjected to size exclusion (Superdex 200), followed by ion exchange (MonoS) before Mass Spectroscopy (MS) analysis. (Panel B) Following separation by chromatography, fractions were dialyzed into PBS and cultured with MHD (healthy monocytes) for 18 hours. Whole cell mRNA was reverse transcribed, and induction of MICB and ULBP-1 was analyzed relative to media alone controls. […] (Panel C) mRNA isolated from PBMC of healthy donors, 293T cells (as negative controls), and U87, U251, and SF767 glioma cell lines were analyzed for expression of LDHA and LDHB by qPCR. (Panel D) A 1:10 dilution of fresh, unfrozen glioblastoma cell line supernatants was analyzed for total LDH enzymatic activity and expressed as OD 495 nm. […] Eighteen hours later, mRNA was isolated and analyzed for MICA, MICB, and ULBP-1 by qPCR. […] Eighteen hours later, mRNA was isolated and analyzed for MICA, MICB and ULBP-1 by qPCR. […] Eighteen hours later, MICB (black bars) and ULBP-1 (gray bars) were measured by qPCR. […]

[3] = biological target: UL16-binding protein 1 (ULBP1) on monocytes (human) (UniProt Q9BZM6); assay: cell-based or functional assay
Sequence of UniProt Q9BZM6 (Q9BZM6 26-216): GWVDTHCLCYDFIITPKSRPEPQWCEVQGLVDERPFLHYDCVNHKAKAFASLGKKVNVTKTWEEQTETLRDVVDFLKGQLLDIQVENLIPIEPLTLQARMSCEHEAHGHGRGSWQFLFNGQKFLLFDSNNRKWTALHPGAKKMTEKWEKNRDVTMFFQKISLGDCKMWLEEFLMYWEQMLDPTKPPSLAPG

[4] = biological target: MHC class I polypeptide-related sequence B (MICB) on monocytes (human) (UniProt Q29980); assay: cell-based or functional assay
Sequence of UniProt Q29980 (Q29980 23-383): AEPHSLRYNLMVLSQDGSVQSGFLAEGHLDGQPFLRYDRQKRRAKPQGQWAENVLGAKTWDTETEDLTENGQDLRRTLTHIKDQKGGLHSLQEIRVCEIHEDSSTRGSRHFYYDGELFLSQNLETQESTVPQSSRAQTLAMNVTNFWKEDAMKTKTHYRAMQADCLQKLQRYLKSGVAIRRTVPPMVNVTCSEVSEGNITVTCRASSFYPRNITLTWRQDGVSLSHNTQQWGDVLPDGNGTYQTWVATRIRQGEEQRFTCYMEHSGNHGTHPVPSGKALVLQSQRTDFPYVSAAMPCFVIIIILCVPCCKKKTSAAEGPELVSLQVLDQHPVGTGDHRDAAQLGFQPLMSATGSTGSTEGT

Compound: O=C(N/N=C/c1cc(O)c(O)cc1O)c1cc2ccccc2cc1O [Dyngo 4a]
LDH5 uptake, effect in words (U87; U87 pre-incubated with 30 uM Dyngo 4a, labeled LDH5 for 30 min): block LDH5 uptake

Compound: O=C1N=C(NS(=O)(=O)c2cccc3ccccc23)SC1=Cc1ccc(Br)cc1 [Pitstop]
LDH5 uptake, effect in words (U87; U87 pre-incubated with 18 uM Pitstop, labeled LDH5 for 30 min): block LDH5 uptake

Compound: NC(=O)C(=O)[O-].[Na+] [Sodium oxamate, sodium oxamate, reference compound]
LDH5 uptake, effect in words (U87; U87, 20 mM oxamate, 30 min, N=1): blocks LDH5 uptake
Ability of U87 supernatant to induce NKG2D ligands (mRNA) on MHD [1]: significantly reduced
LDH-5 internalization in tumor cells, effect in words (Tumor cells): reduces internalization

Compound: CN(C)CCCN1c2ccccc2Sc2ccc(Cl)cc21 [chlorpromazine]
LDH5 uptake, effect in words [2]: blocks LDH5 uptake

Compound: CC(O)C(=O)O (centres unmarked) [lactate]
NK cell NKG2D expression or degranulation (primary human NK cells): neither lactate nor LDH-5 alone directly impacted

IFN-γ production by degranulating NK cells [3]: 20.2%
degranulation of IL-2-activated NK cells [3]: 75.3%
IFN-γ production by degranulating NK cells [4]: 20.2%
degranulation of IL-2-activated NK cells [4]: 75.3%
Compound: Natural killer group 2, member D (NKG2D) receptor on NK cells (from UniProt P26718 1-216)
